Here are results for 2 molecules from US8193169B2, “(20R)-2α-methyl-19,26,2-trinor-vitamin D analogs” (Wisconsin Alumni Research Foundation, priority 2006, dated 2012).

One assay has as its system HL-60 cells. The experiment in a line: HL-60 cell differentiation (nitro blue tetrazolium reduction). Type of assay: cell-based, human. The following applies: for EC50: HL-60 cells, differentiation into monocytes, FIG. 2. The method, then: The study drugs were dissolved in ethanol and the concentrations determined using UV spectrophotometry. Serial dilutions were prepared so that a range of drug concentrations could be tested without changing the final concentration of ethanol (≦0.2%) present in the cell cultures.
Human promyelocytic leukemia (HL60) cells were grown in RPMI-1640 medium containing 10% fetal bovine serum. The cells were incubated at 37° C. in the presence of 5% CO2.
HL60 cells were plated at 1.2×10^5 cells/ml. Eighteen hours after plating, cells in duplicate were treated with drug. Four days later, the cells were harvested and a nitro blue tetrazolium reduction assay was performed (Collins et al., 1979; J. Exp. Med. 149:969-974). The percentage of differentiated cells was determined by counting a total of 200 cells and recording the number that contained intracellular black-blue formazan deposits. Verification of differentiation to monocytic cells was determined by measuring phagocytic activity (data not shown).

A short description of assay [1]: Bone calcium mobilization (serum calcium) in vitamin D-deficient rats. Type of assay: in vivo, Sprague-Dawley rats. The following applies: vitamin D-deficient rats on 0.02% Ca diet, FIG. 4. The method, then:
(§1) Male, weanling Sprague-Dawley rats were placed on Diet 11 (0.47% Ca) diet+AEK oil for one week followed by Diet 11 (0.02% Ca)+AEK oil for 3 weeks. The rats were then switched to a diet containing 0.47% Ca for one week followed by two weeks on a diet containing 0.02% Ca. Dose administration began during the last week on 0.02% calcium diet. Four consecutive ip doses were given approximately 24 hours apart. Twenty-four hours after the last dose, blood was collected from the severed neck and the concentration of serum calcium determined as a measure of bone calcium mobilization. The first 10 cm of the intestine was also collected for intestinal calcium transport analysis using the everted gut sac method.

The subject of assay [2] is 24-hydroxylase (24Ohase) gene promoter. Briefly: In vitro transcription assay, luciferase reporter in ROS 17/2.8 (bone) cells. Type of assay: cell-based. The following applies: for EC50: ROS 17/2.8 cells, 24-hydroxylase promoter-luciferase, FIG. 3, read-out: EC50, transcriptional activity in bone cells. The method, then:
Transcription activity was measured in ROS 17/2.8 (bone) cells that were stably transfected with a 24-hydroxylase (24Ohase) gene promoter upstream of a luciferase reporter gene (Arbour et al., 1998). Cells were given a range of doses. Sixteen hours after dosing the cells were harvested and luciferase activities were measured using a luminometer.
RLU=relative luciferase units.
In general terms: In a reporter assay the amount or activity of a reporter protein is the signal.

For assay [3], the target named is T1, full-length recombinant rat vitamin D receptor (Rattus norvegicus, UniProt P13053).
T1 sequence (P13053 1-423): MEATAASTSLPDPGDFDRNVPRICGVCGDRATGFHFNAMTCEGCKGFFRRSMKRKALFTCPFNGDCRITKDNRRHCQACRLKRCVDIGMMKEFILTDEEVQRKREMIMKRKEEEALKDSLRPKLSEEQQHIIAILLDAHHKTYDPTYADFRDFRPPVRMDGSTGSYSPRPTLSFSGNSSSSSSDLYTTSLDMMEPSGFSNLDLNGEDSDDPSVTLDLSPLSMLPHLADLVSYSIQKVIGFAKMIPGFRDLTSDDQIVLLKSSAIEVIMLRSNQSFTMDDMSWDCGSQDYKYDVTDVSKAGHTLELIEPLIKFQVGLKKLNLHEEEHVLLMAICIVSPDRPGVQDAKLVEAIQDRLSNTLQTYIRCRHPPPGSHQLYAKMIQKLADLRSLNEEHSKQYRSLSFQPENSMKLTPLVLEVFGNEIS
Briefly: biochemical.

The nature of assay [4]: Intestinal calcium transport, everted gut sac method, in vitamin D-deficient rats. It is filed as in vivo, Sprague-Dawley rats. The following applies: 35,100 pmol/day ip for 4 consecutive days, FIG. 5. The protocol: as §1
Assay [5] has as its target T1, full-length recombinant rat vitamin D receptor. As to conditions: compared to 1,25(OH)2D3.
Where [6] appears, read: compared to 1α,25-dihydroxyvitamin D3.

For `C=C1/C(=C\C=C2/CCC[C@]3(C)[C@@H]([C@H](C)CCCC(C)(C)O)CC[C@@H]23)C[C@@H](O)C[C@@H]1O` [1,25(OH)2D3, 1α,25-dihydroxyvitamin D3, reference compound], the EC50 turned out to be 2 nM with HL-60 cells and 0.3 nM in assay [2]. Besides, the “Bone calcium mobilization activity (serum calcium)” value in assay [1] (780 pmol/day) is reported as “significant activity”. Besides, in assay [1] (all dosages), the Serum calcium levels entry is listed as “increased serum calcium levels at all dosages”.
Turning to `CC(CCCCO)C1CCC2C(=CC=C3CC(O)C(C)C(O)C3)CCCC21C` [B-9, (20R)-2α-methyl-19,26,27-trinor-1α,25-dihydroxyvitamin D3], the EC50 in the assay on HL-60 cells (Homo sapiens) was 30 nM; in assay [2], 10 nM. Besides, the “HL-60 cell differentiation activity relative to 1α,25-dihydroxyvitamin D3 (times less activity)” value in the assay with HL-60 cells (setting [6]) is listed as about 10 times. In addition, the “Bone calcium mobilization activity (serum calcium)” value in assay [1] (35,100 pmol/day ip for 4 consecutive days) is “did not result in any mobilization of bone calcium”. Besides, the “Transcriptional activity in bone cells relative to 1α,25-dihydroxyvitamin D3 (times less)” value in assay [2] (setting [6]) is given as “about 30 times”. For the same molecule, the Ki in assay [3] was 1 nM. Besides, in assay [4], the “Intestinal calcium transport activity” value was “did not result in any activity”. Moreover, in assay [5], the “VDR binding potency relative to 1,25(OH)2D3 (times less potent)” value is given as “about 10 times”.

As usually defined, the EC50 is the concentration at which the effect is half-maximal. The term Ki denotes a measure of affinity in units of concentration, obtained from inhibition or displacement.
